Experimental data as given in patent US10759810B2 (AO “TATKHIMFARMPREPARATY”, priority 2016, dated 2020).
Converted amounts (≈) assume the structure as drawn.

Assays:
S. aureus MRSA 1131 = assay: MIC on clinical strain; assay type: cell-based, Staphylococcus aureus
Protocol: (§1) Measurement of antibacterial activity was carried out on the strains of Staphylococcus aureus ATCC 29213 (museum strain), Staphylococcus epidermidis (clinical isolate), Micrococcus luteus (clinical isolate), Bacillus subtilis 168 (museum strain), Escherichia coli ATCC 25922 (museum strain), Salmonella typhimurium TA100 (museum strain), Pseudomonas aeruginosa ATCC 27853 (museum strain). A comparative assessment of the spectrum of antibacterial action on reference strains and clinical isolates of gram-positive microorganisms was carried out using a micromethod for determining the minimum inhibitory concentration (MIC) using serial dilutions in Mueller-Hinton broth using 96-well sterile plates.
(§2) The first lowest concentration of the antibiotic (from a series of successive dilutions), where bacterial growth is not visually determined, is considered to be the minimum inhibitory concentration (MIC).
(§3) For the preparation of inoculum (infectious material used for artificial contamination), intended for the study of antibacterial activity, was used a pure daily culture of bacteria grown on a dense nutrient medium (agar LB medium). In a sterile isotonic solution of sodium chloride, a suspension of microorganisms was prepared, adjusting the inoculum density to 0.5 according to the McFarland standard (1.5·10^8 CFU/ml). Then, the resulting inoculum was diluted to a concentration of 10^7 CFU/ml with LB-broth. The inoculum was used for 15 minutes after preparation; the purity of the bacterial strains was monitored before each experiment.
(§4) 100 μl of Muller-Hinton broth was added to the wells of each plate; the test base was introduced into the first well at a concentration of 128 μg/ml in a volume of 100 μl and its concentration was adjusted to 0.25 μg/ml by consecutive two-fold dilution. […] Each preparation in the experiment was titrated three times. […] In addition, the purity of nutrient media and solvents was monitored. The plates were incubated in a thermostat at […] for 24 hours.
(§5) The growth of cultures was assessed visually, comparing the growth of microorganisms in the presence of test compounds with the growth of culture without them.

S. aureus MRSA 1065 = assay: MIC on clinical strain; assay type: cell-based, Staphylococcus aureus
Protocol: as §1, §2, §3, §4, §5

S. aureus MRSA 1143 = assay: MIC on clinical strain; assay type: cell-based, Staphylococcus aureus
Protocol: as §1, §2, §3, §4, §5

S. aureus MRSA 1130 = assay: MIC on clinical strain; assay type: cell-based, Staphylococcus aureus
Protocol: as §1, §2, §3, §4, §5

S. aureus MRSA 983 = assay: MIC on clinical strain; assay type: cell-based, Staphylococcus aureus
Protocol: as §1, §2, §3, §4, §5

S. aureus MRSA 1173 = assay: MIC on clinical strain; assay type: cell-based, Staphylococcus aureus
Protocol: as §1, §2, §3, §4, §5

S. aureus MRSA 2020 = assay: MIC on clinical strain; assay type: cell-based, Staphylococcus aureus
Protocol: as §1, §2, §3, §4, §5

S. aureus MRSA 981 = assay: MIC on clinical strain; assay type: cell-based, Staphylococcus aureus
Protocol: as §1, §2, §3, §4, §5

S. aureus MRSA 1168 = assay: MIC on clinical strain; assay type: cell-based, Staphylococcus aureus
Protocol: as §1, §2, §3, §4, §5

S. aureus MRSA 967 = assay: MIC on clinical strain; assay type: cell-based, Staphylococcus aureus
Protocol: as §1, §2, §3, §4, §5

S. aureus MRSA 1053 = assay: MIC on clinical strain; assay type: cell-based, Staphylococcus aureus
Protocol: as §1, §2, §3, §4, §5

S. aureus MRSA 1163 = assay: MIC on clinical strain; assay type: cell-based, Staphylococcus aureus
Protocol: as §1, §2, §3, §4, §5

[1] = system: Escherichia coli ATCC 25922 (museum strain); assay: MIC, serial dilutions in Mueller-Hinton broth; assay type: cell-based; conditions: for MIC, E. coli: inoculum 10^7 CFU/ml, gram-negative
Protocol: as §1, §2, §3, §4, §5

[2] = system: Bacillus subtilis 168 (museum strain); assay: MIC, serial dilutions in Mueller-Hinton broth; assay type: cell-based; conditions: for MIC, B. subtilis: inoculum 10^7 CFU/ml, gram-positive
Protocol: as §1, §2, §3, §4, §5

[3] = system: Salmonella typhimurium TA100 (museum strain); assay: MIC, serial dilutions in Mueller-Hinton broth; assay type: cell-based; conditions: for MIC, S. typhimurium: inoculum 10^7 CFU/ml, gram-negative
Protocol: as §1, §2, §3, §4, §5

[4] = system: Pseudomonas aeruginosa ATCC 27853 (museum strain); assay: MIC, serial dilutions in Mueller-Hinton broth; assay type: cell-based; conditions: for MIC, P. aerugenosa: inoculum 10^7 CFU/ml, gram-negative
Protocol: as §1, §2, §3, §4, §5

[5] = system: Staphylococcus aureus ATCC 29213 (museum strain); assay: MIC, serial dilutions in Mueller-Hinton broth; assay type: cell-based; conditions: for MIC, S. aureus: inoculum 10^7 CFU/ml, gram-positive
Protocol: as §1, §2, §3, §4, §5

[6] = system: Staphylococcus epidermidis (clinical isolate); assay: MIC, serial dilutions in Mueller-Hinton broth; assay type: cell-based; conditions: for MIC, S. epidermidis: inoculum 10^7 CFU/ml, gram-positive
Protocol: as §1, §2, §3, §4, §5

[7] = system: Micrococcus luteus (clinical isolate); assay: MIC, serial dilutions in Mueller-Hinton broth; assay type: cell-based; conditions: for MIC, M. luteus: inoculum 10^7 CFU/ml, gram-positive
Protocol: as §1, §2, §3, §4, §5

[8] = system: gram-positive microorganisms; assay: Antibacterial activity (MIC), gram-positive strains; assay type: cell-based; conditions: in words, versus comparison drugs
Protocol: as §1, §2
(§6) For the preparation of inoculum (infectious material used for artificial contamination), intended for the study of antibacterial activity, was used a pure daily culture of bacteria grown on a dense nutrient medium (agar LB medium). […] The inoculum was used for 15 minutes after preparation; the purity of the bacterial strains was monitored before each experiment. […]

[9] = system: microorganism strains under study; assay: Antibacterial activity (MIC), whole strain panel; assay type: cell-based; conditions: in words, from Table 1
Protocol: as §1, §2, §6

Row | Compound | MIC, E. coli [1] | MIC, B. subtilis [2] | MIC, S. typhimurium [3] | MIC, P. aerugenosa [4] | MIC, S. aureus [5] | MIC, S. epidermidis [6] | MIC, M. luteus [7] | other results
1 | CO/N=C(\C(=O)N[C@@H]1C(=O)N2C(C(=O)O)=C(CSc3nc(=O)c(O)nn3C)CS[C@H]12)c1csc(N)n1 [Ceftriaxon, ceftriaxone] | – | – | – | – | – | – | – | The value of the MIC, S. aureus MRSA 1131 (S. aureus MRSA 1131; inoculum 10^7 CFU/ml): >64 mg/L; The value of the MIC, S. aureus MRSA 1065 (S. aureus MRSA 1065; inoculum 10^7 CFU/ml): >64 mg/L; The value of the MIC, S. aureus MRSA 1143 (S. aureus MRSA 1143; inoculum 10^7 CFU/ml): >64 mg/L; The value of the MIC, S. aureus MRSA 1130 (S. aureus MRSA 1130; inoculum 10^7 CFU/ml): >64 mg/L; The value of the MIC, S. aureus MRSA 983 (S. aureus MRSA 983; inoculum 10^7 CFU/ml): >64 mg/L; The value of the MIC, S. aureus MRSA 1173 (S. aureus MRSA 1173; inoculum 10^7 CFU/ml): >64 mg/L; The value of the MIC, S. aureus MRSA 2020 (S. aureus MRSA 2020; inoculum 10^7 CFU/ml): 2 mg/L; The value of the MIC, S. aureus MRSA 981 (S. aureus MRSA 981; inoculum 10^7 CFU/ml): >64 mg/L; The value of the MIC, S. aureus MRSA 1168 (S. aureus MRSA 1168; inoculum 10^7 CFU/ml): 0.5 mg/L; The value of the MIC, S. aureus MRSA 967 (S. aureus MRSA 967; inoculum 10^7 CFU/ml): >64 mg/L; The value of the MIC, S. aureus MRSA 1053 (S. aureus MRSA 1053; inoculum 10^7 CFU/ml): >64 mg/L; The value of the MIC, S. aureus MRSA 1163 (S. aureus MRSA 1163; inoculum 10^7 CFU/ml): >64 mg/L
2 | Cc1ncc(CSCCN2CCN(c3cc4c(cc3F)c(=O)c(C(=O)O)cn4C3CC3)CC2)c2c1OC(C)(C)OC2 [Compound I-4, 1-cyclopropyl-6-fluoro-7-(4-(2-(((2,2,8-trimethyl-4H-[1,3]dioxino-[4,5-c]pyridine-5-yl)methyl)sulfanyl)ethyl)piperazinyl)-4-oxo-1,4-dihydroquinolin-3-carboxylic acid] | 64 mg/L (≈ 110 µM) | <2 mg/L | 4 mg/L (≈ 6.86 µM) | >64 mg/L | 16 mg/L (≈ 27.5 µM) | 32 mg/L (≈ 54.9 µM) | 8 mg/L (≈ 13.7 µM) | –
3 | Cc1ncc(CSCCN2CCN(c3cc4c(cc3F)c(=O)c(C(=O)O)cn4C3CC3)CC2)c(CO)c1O [Compound I-5, 1-cyclopropyl-6-fluoro-7-(4-(2-(((5-hydroxy-4-hydroxymethyl-6-methylpyridine-3-yl)methyl)sulfanyl)ethyl)piperazinyl)-4-oxo-1,4-dihydroquinolin-3-carboxylic acid] | 8 mg/L (≈ 14.7 µM) | <2 mg/L | 4 mg/L (≈ 7.37 µM) | 32 mg/L (≈ 59 µM) | 8 mg/L (≈ 14.7 µM) | 8 mg/L (≈ 14.7 µM) | 8 mg/L (≈ 14.7 µM) | –
4 | 1-cyclopropyl-6-fluoro-7-(4-((5-hydroxy-2,4-bis(hydroxymethyl)-6-methylpyridine-3-yl) methyl) piperazinyl)-4-oxo-1,4-dihydroquinolin-3-carboxylic acid [Compound I-9] | 64 mg/L | 4 mg/L | 4 mg/L | >64 mg/L | 0.5 mg/L | 8 mg/L | 2 mg/L | antibacterial action with respect to gram-positive microorganisms [8]: comparable with the comparison drugs; antibacterial activity against the microorganism strains under study [9]: most active
5 | CN[C@H](CC(C)C)C(=O)N[C@H]1C(=O)N[C@@H](CC(N)=O)C(=O)N[C@H]2C(=O)N[C@H]3C(=O)N[C@H](C(=O)N[C@H](C(=O)O)c4cc(O)cc(O)c4-c4cc3ccc4O)[C@H](O)c3ccc(c(Cl)c3)Oc3cc2cc(c3O[C@@H]2O[C@H](CO)[C@@H](O)[C@H](O)[C@H]2O[C@H]2C[C@](C)(N)[C@H](O)[C@H](C)O2)Oc2ccc(cc2Cl)[C@H]1O [Vancomycin, vancomycin] | – | – | – | – | – | – | – | MIC (S. aureus MRSA 1131; Staphylococcus aureus, MRSA, read-out: The value of the MIC, S. aureus MRSA 1131): 0.5 mg/L (≈ 0.345 µM); MIC (S. aureus MRSA 1065; Staphylococcus aureus, MRSA, read-out: The value of the MIC, S. aureus MRSA 1065): 1 mg/L (≈ 0.69 µM); MIC (S. aureus MRSA 1143; Staphylococcus aureus, MRSA, read-out: The value of the MIC, S. aureus MRSA 1143): 1 mg/L (≈ 0.69 µM); MIC (S. aureus MRSA 1130; Staphylococcus aureus, MRSA, read-out: The value of the MIC, S. aureus MRSA 1130): 1 mg/L (≈ 0.69 µM); MIC (S. aureus MRSA 983; Staphylococcus aureus, MRSA, read-out: The value of the MIC, S. aureus MRSA 983): 2 mg/L (≈ 1.38 µM); MIC (S. aureus MRSA 1173; Staphylococcus aureus, MRSA, read-out: The value of the MIC, S. aureus MRSA 1173): 2 mg/L (≈ 1.38 µM); MIC (S. aureus MRSA 2020; Staphylococcus aureus, MRSA, read-out: The value of the MIC, S. aureus MRSA 2020): 0.5 mg/L (≈ 0.345 µM); MIC (S. aureus MRSA 981; Staphylococcus aureus, MRSA, read-out: The value of the MIC, S. aureus MRSA 981): 2 mg/L (≈ 1.38 µM); MIC (S. aureus MRSA 1168; Staphylococcus aureus, MRSA, read-out: The value of the MIC, S. aureus MRSA 1168): 0.5 mg/L (≈ 0.345 µM); MIC (S. aureus MRSA 967; Staphylococcus aureus, MRSA, read-out: The value of the MIC, S. aureus MRSA 967): 4 mg/L (≈ 2.76 µM); MIC (S. aureus MRSA 1053; Staphylococcus aureus, MRSA, read-out: The value of the MIC, S. aureus MRSA 1053): 2 mg/L (≈ 1.38 µM); MIC (S. aureus MRSA 1163; Staphylococcus aureus, MRSA, read-out: The value of the MIC, S. aureus MRSA 1163): 2 mg/L (≈ 1.38 µM); MIC ([1]; Escherichia coli, ATCC25922, read-out: MIC, E. coli): 64 mg/L (≈ 44.2 µM); MIC ([2]; Bacillus subtilis, read-out: MIC, B. subtilis): 64 mg/L (≈ 44.2 µM); MIC ([3]; Salmonella enterica, TYPHIMURIUM, read-out: MIC, S. typhimurium): 64 mg/L (≈ 44.2 µM); MIC ([4]; Pseudomonas aeruginosa, ATCC27853, read-out: MIC, P. aerugenosa): > 64 mg/L; MIC ([5]; Staphylococcus aureus, ATCC29213, read-out: MIC, S. aureus): 4 mg/L (≈ 2.76 µM); MIC ([6]; Staphylococcus epidermidis, read-out: MIC, S. epidermidis): 4 mg/L (≈ 2.76 µM); MIC ([7]; Micrococcus luteus, read-out: MIC, M. luteus): 4 mg/L (≈ 2.76 µM)
6 | Cc1nc(CN2CCN(c3cc4c(cc3F)c(=O)c(C(=O)O)cn4C3CC3)CC2)c(CO)c2c1OC(C)(C)OC2 [Compound I-10, 1-cyclopropyl-6-fluoro-7-(4-((5-hydroxymethyl-2,2,8-trimethyl-4H-[1,3]dioxino [4,5-c]pyridine-6-yl)methyl)piperazinyl)-4-oxo-1,4-dihydroquinolin-3-carboxylic acid] | 64 mg/L (≈ 116 µM) | <2 mg/L | 4 mg/L (≈ 7.24 µM) | >64 mg/L | 8 mg/L (≈ 14.5 µM) | 8 mg/L (≈ 14.5 µM) | 8 mg/L (≈ 14.5 µM) | –
7 | Cc1ncc(CN2CCN(c3cc4c(cc3F)c(=O)c(C(=O)O)cn4C3CC3)CC2)c2c1OC(C)(C)OC2 [Compound I-1, 1-cyclopropyl-6-fluoro-7-(4-((2,2,8-trimethyl-4H-[1,3]dioxino-[4,5-c]pyridine-5-yl)methyl)piperazinyl)-4-oxo-1,4-dihydroquinolin-3-carboxylic acid] | 64 mg/L (≈ 122 µM) | <2 mg/L | 4 mg/L (≈ 7.65 µM) | >64 mg/L | 32 mg/L (≈ 61.2 µM) | 16 mg/L (≈ 30.6 µM) | 32 mg/L (≈ 61.2 µM) | –
